Assay results: US7575882B2, “Compositions and methods for identifying modulators of TRPV2” (Janssen Pharmaceutica N. V., priority 2005, dated 2009)

Experiments:
[1] = target: T1, rat and human TRPV2 chimera HRR (Rattus norvegicus, UniProt Q9WUD2, A110E/A257S/D189N/D73N/DEL322-322/DEL56-59/DEL67-67/E160D/E240Q/E289D/E384A/E71D/E91D/F161Y/G295D/H202G/H269S/H293L/I268T/K144R/K150Q/K353E/K51R/L151P/L192A/L245Q/L96P/M137L/M277A/N102T/N368H/N45K/N63G/P261A/P325H/P38Q/P60Y/P61R/Q129K/Q163R/Q324S/Q70P/R100S/R388L/R392K/R41G/S264I/S291R/S346A/S391P/S46F/S47A/S65G/S82N/T227S/T93A/V390I/V83A/W101K/W351C/Y323L); assay: Calcium mobilization in HEK293 cells expressing TRPV2 chimera HRR; format: cell-based; conditions: expressed separately in HEK cells
T1 construct: expressed in transfected cells; host or cells: HEK293, transient, pCI-neo
T1 sequence (Q9WUD2 with tags, fused parts or gaps P38Q/R41G/N45K/S46F/S47A/K51R/DEL56-59/P60Y/P61R/N63G/S65G/DEL67-67/Q70P/E71D/D73N/S82N/V83A/E91D/T93A/L96P/R100S/W101K/N102T/A110E/Q129K/M137L/K144R/K150Q/L151P/E160D/F161Y/Q163R/D189N/L192A/H202G/T227S/E240Q/L245Q/A257S/P261A/S264I/I268T/H269S/M277A/E289D/S291R/H293L/G295D/DEL322-322/Y323L/Q324S/P325H/S346A/W351C/K353E/N368H/E384A/R388L/V390I/S391P/R392K): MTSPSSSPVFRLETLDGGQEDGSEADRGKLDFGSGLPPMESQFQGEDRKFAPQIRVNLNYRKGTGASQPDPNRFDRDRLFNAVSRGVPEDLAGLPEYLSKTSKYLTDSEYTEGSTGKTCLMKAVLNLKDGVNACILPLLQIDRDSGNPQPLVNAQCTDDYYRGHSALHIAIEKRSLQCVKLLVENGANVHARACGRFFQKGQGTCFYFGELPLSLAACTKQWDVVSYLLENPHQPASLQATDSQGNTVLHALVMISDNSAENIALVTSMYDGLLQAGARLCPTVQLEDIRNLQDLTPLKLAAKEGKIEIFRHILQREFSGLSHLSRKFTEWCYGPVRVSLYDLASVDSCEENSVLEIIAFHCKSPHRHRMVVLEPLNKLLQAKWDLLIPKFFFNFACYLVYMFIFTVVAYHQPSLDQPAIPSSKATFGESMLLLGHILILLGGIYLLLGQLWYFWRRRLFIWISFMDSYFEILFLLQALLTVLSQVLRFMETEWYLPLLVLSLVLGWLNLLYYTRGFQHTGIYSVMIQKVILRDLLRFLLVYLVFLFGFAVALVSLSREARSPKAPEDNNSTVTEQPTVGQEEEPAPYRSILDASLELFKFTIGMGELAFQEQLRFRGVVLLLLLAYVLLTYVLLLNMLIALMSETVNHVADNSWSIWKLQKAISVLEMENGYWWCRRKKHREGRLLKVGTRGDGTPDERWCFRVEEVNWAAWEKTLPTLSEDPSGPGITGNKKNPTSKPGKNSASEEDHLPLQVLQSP
Method: The deletion mutant constructs were then transfected into HEK293 cells using Fugene 6 reagent (Roche) as per the manufacturer's instructions. At 24 hours post-transfection, the cells were harvested and replated in fresh DMEM medium supplemented with 10% fetal bovine serum, 100 units/ml penicillin, and 100 μg/ml streptomycin. The cells were distributed onto poly-D-Lysine coated 96-or 384-well plates at a density of approximately 40,000 and 10,000 cells per well, respectively. At approximately 48 hours post-transfection, the medium was removed from the assay plate and replaced with Calcium 3 Dye Buffer (Molecular Devices) using the protocol available from the manufacturer. Calcium mobilization was triggered using Δ^9-THC or 2-APB or elevated temperature buffer and measured using either FLIPR or FLEX STATION instruments.
Based on the predicted topology and primary sequence features of TRPV2, TRPV2 are divided into 3 major domains: 1) the amino-terminal intracellular domain; 2) the transmembrane domain; and 3) the carboxyl-terminal intracellular domain. For a chimera, each domain can be of rat (R) or human (H) origin. Three rat and human TRPV2 chimera were constructed and tested herein. RRH (SEQ ID NO:15) was a chimera comprising rat 1-392 aa, rat 393-646 aa, and human 647-764 aa. RHR (SEQ ID NO:16) was a chimera comprising rat 1-392, human 391-646, and rat 647-761. […]

[2] = system: deletion mutants of rat TRPV2; assay: Calcium mobilization in HEK293 cells expressing rat TRPV2 deletion mutants; format: cell-based; conditions: mutants lacking N-terminal 20, 32/33, 65/66 or C-terminal 11, 23, 32 residues
Description: DNA molecules encoding the deletion mutants were amplified by PCR using the rat TRPV2 cDNA as the template. For amino-terminal deletions, a series N-terminal forward primers encoding an initiating methionine in frame with sequences matching adjacent regions of the desired start at residues G21 (mutant N20, SEQ ID NO:11), P33 (N32, SEQ ID NO:12), A66 (N65, SEQ ID NO:13) and V84 (N83, SEQ ID NO:14) paired with a C-terminal reverse primer were used for PCR amplification. While for carboxyl-terminal deletions, a forward N-terminal primer paired with a series C-terminal reverse primers ending at residues R706 (C51, SEQ ID NO:7), P729 (C32, SEQ ID NO:8), P738 (C23, SEQ ID NO:9) and E750 (C11, SEQ ID NO:10) with an in-frame stop codon at the terminal end of the open reading frame were used for amplification. After PCR amplification and purification, the DNA molecules encoding the deletion mutants were subcloned into the pCI-neo mammalian expression vector and the constructs were confirmed by DNA sequencing. […]
The deletion mutant constructs were then transfected into HEK293 cells using Fugene 6 reagent (Roche) as per the manufacturer's instructions. […] Calcium mobilization was triggered using Δ^9-THC or 2-APB or elevated temperature buffer and measured using either FLIPR or FLEX STATION instruments.

Substance: Delta-9-tetrahydrocannabinol [Δ^9-THC]
- response of chimera HRR to the compound [1]: not active
- response of rat TRPV2 deletion mutants to the compound [2]: still active
